PMC8386128, “Evaluation of Short-Chain Antimicrobial Peptides With Combined Antimicrobial and Anti-inflammatory Bioactivities for the Treatment of Zoonotic Skin Pathogens From Canines” (Frontiers in Microbiology, 2021)
Where a name gives a salt, the structure may show the parent alone. Read-outs that look alike come from different tables or passages of the source. No end group written: not given here.

Legend:
[1] = test system: S. pseudintermedius MW767056 skin infection; experiment: Mouse skin infection (abrasion) model; conditions: topical 50 μl at 6× MIC daily, n = 5; for bacterial counts of infected skin tissue: inoculum 5 × 10^6 CFU, mean
[2] = test system: Staphylococcus cohnii MW767053; conditions: peptide constant at 1/4 × MIC, 1 × 10^5 CFU/ml, triplicate
[3] = test system: Staphylococcus pseudintermedius MW767056; conditions: peptide constant at 1/4 × MIC, 1 × 10^5 CFU/ml, triplicate
[4] = test system: S. pseudintermedius MW767056; experiment: Bacteriolysis analysis (culture turbidity at 600 nm); type: cell-based, Staphylococcus pseudintermedius; conditions: 4× MIC
[5] = test system: TNF-α; experiment: Western blotting of TNF-α in infected mouse skin; type: in vivo, BALB/c mice; conditions: day 1, vs saline-treated group, normalized to β-actin, n = 3
Method: To examine the expression of IL-6 and TNF-α at the protein level, immunoblotting was performed as reported previously ([Tang et al., 2017]). Proteins from dorsal skin tissues were extracted for Western blotting assays. Primary antibodies included anti-IL-6 (1:1,000, Abcam, Waltham, MA, United States) and anti-TNF-α (1:1,000, Abcam, United States). To verify equal sample loading, the membrane was incubated with rabbit polyclonal anti-β-actin antibody (1:1,000, Abcam, United States) as an internal control. Horseradish peroxidase-conjugated goat anti-rabbit IgG (1:5000, Abcam, United States) was used as the secondary antibody. The membranes were exposed under a chemiluminescent imaging analysis system (GE Healthcare Life Science, Danderyd, Sweden). Samples not treated with primary antibodies were considered negative controls. Relative levels of each protein were normalized to those of β-actin in each sample.

[6] = test system: S. pseudintermedius MW767056; experiment: Calcein leakage analysis (membrane permeabilization); type: cell-based, Staphylococcus pseudintermedius; conditions: 10× MIC, up to 1 h, triplicate, two independent experiments
[7] = test system: Microsporum canis MW768151; conditions: peptide constant at 1/4 × MIC, 1 × 10^5 CFU/ml, triplicate
[8] = test system: S. pseudintermedius MW767056 biofilm; conditions: for MBIC: 24 h; for MBEC: 48 h
[9] = test system: Proteus mirabilis MW767054; conditions: MW767054, 24 h
[10] = test system: S. cohnii MW767053 biofilm; conditions: for MBIC: 24 h; for MBEC: 48 h
[11] = test system: Microsporum gypseum MW766983; conditions: 24 h
[12] = test system: Staphylococcus cohnii MW767053
[13] = test system: Staphylococcus sciuri MW767055
[14] = test system: Staphylococcus haemolyticus MW767051
[15] = test system: M. canis MW768151 biofilm; conditions: for MBIC: 24 h; for MBEC: 48 h
[16] = test system: Staphylococcus simulans MW767052
[17] = test system: Trichophyton mentagrophytes MW766984; conditions: 24 h
[18] = test system: Staphylococcus pseudintermedius clinical isolates; conditions: triplicate; for MBC/MFC: 10 μl plated on MH plate, no colonies; for MIC: broth microdilution, MHB, 1 × 10^5 CFU/ml, 24 h, 37°C
[19] = test system: sheep and mouse erythrocytes; experiment: Hemolysis assay; conditions: 4% erythrocyte suspension, 2 h, 37°C, absorption at 550 nm, triplicate
Method: The hemolysis assay was carried out by inoculating mammalian erythrocytes obtained from fresh defibrinated sheep and mouse blood (Thermo Fisher Scientific, Waltham, MA, United States) with the peptides. Briefly, peptides were incubated at 37°C with a 4% erythrocyte suspension with a twofold serial dilution series of peptides ranging from 512 to 1 μg/ml for 2 h. PBS and 1% nonionic detergent Triton X-100^TM (Sigma-Aldrich, St. Louis, MO, United States) diluted in PBS served as negative and positive controls, respectively. Cytolysis was evaluated by the measurement of absorption using a microplate reader at 550 nm. Experiments were done in triplicate. The hemolysis is derived from the following calculation:
Haemolysis%=A-APBS/ATriton-APBS×100%.
A represents the absorbance of samples treated with peptide, while APBS and ATriton indicate the absorbance of the negative and positive controls, respectively.

[20] = test system: S. pseudintermedius MW767056; conditions: three replicates, two independent experiments
[21] = test system: S. cohnii MW767053; conditions: peptide incubated in 25% FBS in RPMI-1640, 37°C, 4 h, then MIC at 1 × 10^5 CFU/ml; three replicates, two independent experiments
[22] = in combination with Allomyrinasin

`CC1(C)S[C@@H]2[C@H](NC(=O)[C@H](N)c3ccc(O)cc3)C(=O)N2[C@H]1C(=O)O` [Amoxicillin, amoxicillin] was tested, and the “bacterial counts of infected skin tissue” value ([1]; day 1) was 5.94 log10 CFU/g, the “bacterial load in the liver” value ([1]; day 1) was “No bacterial load was detected” and the “bacterial counts of infected skin tissue” value ([1]; day 3) was 3.58 log10 CFU/g. The “S. pseudintermedius infection in the liver” value ([1]; day 3) was “completely prevented”, the FIC index [2, 22] was 0.3125 and the FIC index ([2]; in combination with Andricin B) was 0.50. The FIC index [3, 22] was 0.281, the FIC index ([3]; in combination with Andricin B) was “indifferent interaction” and the “variation in culture turbidity (OD600) over 10 h” value ([4]; result in words) was “not recorded”. The “expression level of TNF-α protein in infected skin” value [5] was “decreased” and the “calcein leakage (decrease in fluorescence intensity)” value [6] was “no obvious disruptive reaction”.

`CN(C/C=C/C#CC(C)(C)C)Cc1cccc2ccccc12` [Terbinafine, terbinafine hydrochloride] was tested, and the FIC index [7, 22] was 0.375 and the FIC index ([7]; in combination with Andricin B) was 0.50.

AAVTRRILCWFA-NH2 [Allomyrinasin] showed an MBIC [8] of 32 µg/mL, an MBEC [8] of 128 µg/mL and an MBC/MFC [9] greater than 256 µg/mL. It also gave an MIC [9] greater than 256 µg/mL, an MBIC [10] of 128 µg/mL and an MBEC [10] of 256 µg/mL. The MBC/MFC [11] was 0.5 µg/mL, the MIC [11] was 0.5 µg/mL and the MBC/MFC ([12]; 24 h) was 32 µg/mL. It also gave an MIC ([12]; 24 h) of 32 µg/mL, an MBC/MFC ([13]; 24 h) greater than 256 µg/mL and an MIC ([13]; 24 h) greater than 256 µg/mL. The MBC/MFC ([14]; 24 h) was greater than 256 µg/mL, the MIC ([14]; 24 h) was greater than 256 µg/mL and the MBIC [15] was 2 µg/mL. It also gave an MBEC [15] of 8 µg/mL, an MBC/MFC ([16]; 24 h) of 128 µg/mL and an MIC ([16]; 24 h) of 128 µg/mL. It also gave an MBC/MFC [17] of 2 µg/mL and an MIC [17] of 2 µg/mL.

For GLLSGILGAGKKIVF [Nigrocin-HLM], the MBC/MFC [9] was 64 µg/mL and the MBC/MFC [11] was 1 µg/mL.

GLTRLFSVIK [Andricin B] gave an FIC index [2, 22] of 0.50, an FIC index [3, 22] of 0.3125 and an MBIC [8] of 128 µg/mL. It also gave an MBEC [8] of 256 µg/mL, an MBC/MFC ([18]; strain MW767046) of 32 µg/mL and an MIC ([18]; strain MW767046) of 32 µg/mL. For the same compound, the MBC/MFC ([18]; strain MW767056) was 32 µg/mL, the MIC ([18]; strain MW767056) was 32 µg/mL and the MBC/MFC ([18]; strain MW793383) was 32 µg/mL. It also gave an MIC ([18]; strain MW793383) of 32 µg/mL, an MBC/MFC ([18]; strain MW793384) of 128 µg/mL and an MIC ([18]; strain MW793384) of 128 µg/mL. The MBC/MFC ([18]; strain MW793385) was 64 µg/mL, the MIC ([18]; strain MW793385) was 64 µg/mL and the MBC/MFC ([18]; strain MW793386) was 64 µg/mL. For the same compound, the MIC ([18]; strain MW793386) was 64 µg/mL, the MBC/MFC ([18]; strain MW793387) was 128 µg/mL and the MIC ([18]; strain MW793387) was 128 µg/mL. For the same compound, the MBC/MFC ([18]; strain MW793388) was 64 µg/mL, the MIC ([18]; strain MW793388) was 64 µg/mL and the MBC/MFC ([18]; strain MW793389) was 128 µg/mL. The MIC ([18]; strain MW793389) was 128 µg/mL, the MBC/MFC ([18]; strain MW793390) was 128 µg/mL and the MIC ([18]; strain MW793390) was 128 µg/mL. The MBC/MFC ([18]; strain MW793391) was 32 µg/mL, the MIC ([18]; strain MW793391) was 32 µg/mL and the MBC/MFC ([18]; strain MW793392) was 64 µg/mL. The MIC ([18]; strain MW793392) was 64 µg/mL, the MBC/MFC [9] was greater than 256 µg/mL and the MIC [9] was greater than 256 µg/mL. The MBIC [10] was 256 µg/mL, the MBEC [10] was greater than 256 µg/mL and the MBC/MFC [11] was 2 µg/mL. The MIC [11] was 2 µg/mL, the MBC/MFC ([12]; strain MW767053, MBC, 10 μl plated on MH plate, no colonies, triplicate) was 64 µg/mL and the MBC/MFC ([13]; strain MW767055, MBC, 10 μl plated on MH plate, no colonies, triplicate) was greater than 256 µg/mL. For the same compound, the MIC ([13]; strain MW767055, broth microdilution, MHB, 1 × 10^5 CFU/ml, 24 h, 37°C, triplicate) was greater than 256 µg/mL, the MBC/MFC ([14]; strain MW767051, MBC, 10 μl plated on MH plate, no colonies, triplicate) was greater than 256 µg/mL and the MIC ([14]; strain MW767051, broth microdilution, MHB, 1 × 10^5 CFU/ml, 24 h, 37°C, triplicate) was greater than 256 µg/mL. For the same compound, the “hemolytic activity at lower concentrations” value ([19]; 1 to 64 μg/ml) was “little or no obvious hemolytic activity”, the “hemolytic activity at high concentrations” value ([19]; >64 μg/ml) was “slight hemolytic activity” and the “MIC without serum treatment” value ([20]; 1 × 10^5 CFU/ml) was 32 µg/mL. The “MIC after serum treatment” value ([20]; peptide incubated in 25% FBS in RPMI-1640, 37°C, 4 h, then MIC at 1 × 10^5 CFU/ml) was 64 µg/mL, the MBIC [15] was 4 µg/mL and the MBEC [15] was 16 µg/mL. The MBC/MFC ([16]; strain MW767052, MBC, 10 μl plated on MH plate, no colonies, triplicate) was 256 µg/mL, the MIC ([16]; strain MW767052, broth microdilution, MHB, 1 × 10^5 CFU/ml, 24 h, 37°C, triplicate) was 256 µg/mL and the MBC/MFC [17] was 1 µg/mL. For the same compound, the MIC [17] was 1 µg/mL and the “MIC after serum treatment” value [21] was 256 µg/mL.

“ITSISLCTPGCKTGALMGCNMKTATCHCSIHVSK [Nisin, well-known membrane-perturbing peptide, positive control]” was tested, and the “decrease in absorbance (turbidity, OD600)” value ([4]; after 2.5 h, MHB, triplicate) was greater than 60% and the “calcein leakage (decrease in fluorescence intensity)” value [6] was “at least 95%”.

Work on KWAVRIIRKFIKGFIS [Hs02] yielded an MBC/MFC [9] of 128 µg/mL, an MIC [9] of 128 µg/mL and an MBC/MFC [11] of 0.5 µg/mL. The MIC [11] was 0.5 µg/mL, the MBC/MFC ([12]; 24 h) was 32 µg/mL and the MIC ([12]; 24 h) was 32 µg/mL. The MBC/MFC ([13]; 24 h) was greater than 256 µg/mL, the MIC ([13]; 24 h) was greater than 256 µg/mL and the MBC/MFC ([14]; 24 h) was 128 µg/mL. It also gave an MIC ([14]; 24 h) of 128 µg/mL, an MBC/MFC ([16]; 24 h) of 64 µg/mL and an MIC ([16]; 24 h) of 64 µg/mL. It also gave an MBC/MFC [17] of 1 µg/mL and an MIC [17] of 1 µg/mL.

VAEARQGSFSY [Pinipesin] gave an MBIC [8] greater than 256 µg/mL, an MBEC [8] greater than 256 µg/mL and an MBC/MFC [9] greater than 256 µg/mL. For the same compound, the MIC [9] was greater than 256 µg/mL, the MBIC [10] was greater than 256 µg/mL and the MBEC [10] was greater than 256 µg/mL. It also gave an MBC/MFC [11] of 2 µg/mL, an MIC [11] of 2 µg/mL and an MBC/MFC ([12]; 24 h) greater than 256 µg/mL. For the same compound, the MIC ([12]; 24 h) was greater than 256 µg/mL, the MBC/MFC ([13]; 24 h) was greater than 256 µg/mL and the MIC ([13]; 24 h) was greater than 256 µg/mL. It also gave an MBC/MFC ([14]; 24 h) greater than 256 µg/mL, an MIC ([14]; 24 h) greater than 256 µg/mL and an MBIC [15] of 4 µg/mL. For the same compound, the MBEC [15] was 16 µg/mL, the MBC/MFC ([16]; 24 h) was 128 µg/mL and the MIC ([16]; 24 h) was 128 µg/mL. It also gave an MBC/MFC [17] of 0.5 µg/mL and an MIC [17] of 0.5 µg/mL.
